Results reported in patent US9125416B2, “Pesticidal mixtures” (BASF SE, priority 2010, dated 2015).

Assays:
Format in all cases: in vivo
[1] = test system: green peach aphid (Myzus persicae); assay: Test 2: Control of Green Peach Aphid, liquid artificial diet under artificial membrane, 96-well-microtiter plates; conditions: aphid mortality and fecundity after 3 days
[2] = test system: vetch aphid (Megoura viciae); assay: Test 1: Control of Vetch Aphid, broad bean leaf disks in 24-well-microtiter plates; conditions: sprayed on leaf disks, aphid mortality and fecundity after 5 days
[3] = test system: boll weevil (Anthonomus grandis); assay: Test 3: Control of Boll Weevil, insect diet with A. grandis eggs, 24-well-microtiter plates; conditions: sprayed onto insect diet, egg and larval mortality after 5 days

Molecule: Cc1c(COC(=O)[C@@H]2[C@H](/C=C(\Cl)C(F)(F)F)C2(C)C)cccc1-c1ccccc1 (racemic) [Bifenthrin, bifenthrin]
- Oberved Control average ([1]; 0.08 ppm in aphid diet): 0%
- Oberved Control average ([2]; 2 ppm): 0%

Molecule: C[C@]1(COC(=O)C2CC2)[C@@H]2C[C@H](O)[C@@]3(C)Oc4cc(-c5cccnc5)oc(=O)c4[C@H](O)[C@@H]3[C@@]2(C)CC[C@@H]1OC(=O)C1CC1 [Compound I, [(3S,4R,4aR,6S,6aS,12R,12aS,12bS)-3-(cyclopropanecarbonyloxy)-6,12-dihydroxy-4,6a,12b-trimethyl-11-oxo-9-(pyridin-3-yl)-1,2,3,4,4a,5,6,6a,12a,12b-decahydro-11H,12H-benzo[f]pyrano[4,3-b]chromen-4-yl]methyl cyclopropanecarboxylate]
- Oberved Control average ([1]; 0.004 ppm in aphid diet): 0%
- Oberved Control average ([2]; 0.004 ppm): 25%
- Oberved Control average ([3]; 0.02 ppm): 0%

Molecule: O=C1C=C(N(CCF)Cc2ccc(Cl)nc2)CO1 [Compound M26.4, 4-{[(6-chloropyrid-3-yl)methyl](2-fluoroethyl)amino}furan-2(5H)-on]
- Oberved Control average ([3]; 2 ppm): 0%

Molecule: abamectin
- Oberved Control average ([1]; 0.016 ppm in aphid diet): 0%
